Here are results for 11 molecules from patent US10941145B2, “Toll-like receptor 7 (TLR7) agonists having a benzotriazole moiety, conjugates thereof, and methods and uses therefor” (BRISTOL-MYERS SQUIBB COMPANY, priority 2017, dated 2021).

One test relates to interleukin 6 (IL-6). The test is described as follows: Interleukin 6 (IL-6) induction in human whole blood. The settings on record: 37° C., 20 h, AlphaLISA. In kind it is cell-based. Here is the method:
This example describes a method for assaying interleukin 6 induction by compounds disclosed in this specification.
Compounds diluted in DMSO were transferred to individual wells of a Matrix Technologies clear, V-bottom 384-well plate using ECHO acoustic liquid handling technology (25 nL per well). Human whole-blood samples (25 uL) were added to each well using a CyBio FeliX liquid handling instrument. The plate was shaken on a plate shaker for three min before the reaction mixtures at 37° C. for 20 h. Basel RPMI 1640 medium (supplemented with L-glutamine) was then added to each well (25 uL per well) prior to liberating plasma from each sample by centrifugation (450×g, 5 min, ambient temperature). Treated plasma samples (3 uL) were subsequently transferred to individual wells of a white, shallow, 384-well ProxiPlate (Perkin Elmer) using the FeliX liquid handling instrument and their interleukin 6 levels were measured using AlphaLISA technology as described by the manufacturer, PerkinElmer. Data analyses software was used to determine compound EC50 values where the baseline was established using average DMSO values and 100% induction established using reference compound values at the highest concentration tested. EC50's can be determined with software such as Graphpad Prism™.
(Alpha assays give light when donor and acceptor beads are brought close together.)

The target of the next test is T1, human TLR7 (Homo sapiens, UniProt Q9NYK1).
T1 construct: host or cells: HEK-Blue TLR7 cells (engineered human embryonic kidney cells)
T1 sequence (Q9NYK1 27-1049): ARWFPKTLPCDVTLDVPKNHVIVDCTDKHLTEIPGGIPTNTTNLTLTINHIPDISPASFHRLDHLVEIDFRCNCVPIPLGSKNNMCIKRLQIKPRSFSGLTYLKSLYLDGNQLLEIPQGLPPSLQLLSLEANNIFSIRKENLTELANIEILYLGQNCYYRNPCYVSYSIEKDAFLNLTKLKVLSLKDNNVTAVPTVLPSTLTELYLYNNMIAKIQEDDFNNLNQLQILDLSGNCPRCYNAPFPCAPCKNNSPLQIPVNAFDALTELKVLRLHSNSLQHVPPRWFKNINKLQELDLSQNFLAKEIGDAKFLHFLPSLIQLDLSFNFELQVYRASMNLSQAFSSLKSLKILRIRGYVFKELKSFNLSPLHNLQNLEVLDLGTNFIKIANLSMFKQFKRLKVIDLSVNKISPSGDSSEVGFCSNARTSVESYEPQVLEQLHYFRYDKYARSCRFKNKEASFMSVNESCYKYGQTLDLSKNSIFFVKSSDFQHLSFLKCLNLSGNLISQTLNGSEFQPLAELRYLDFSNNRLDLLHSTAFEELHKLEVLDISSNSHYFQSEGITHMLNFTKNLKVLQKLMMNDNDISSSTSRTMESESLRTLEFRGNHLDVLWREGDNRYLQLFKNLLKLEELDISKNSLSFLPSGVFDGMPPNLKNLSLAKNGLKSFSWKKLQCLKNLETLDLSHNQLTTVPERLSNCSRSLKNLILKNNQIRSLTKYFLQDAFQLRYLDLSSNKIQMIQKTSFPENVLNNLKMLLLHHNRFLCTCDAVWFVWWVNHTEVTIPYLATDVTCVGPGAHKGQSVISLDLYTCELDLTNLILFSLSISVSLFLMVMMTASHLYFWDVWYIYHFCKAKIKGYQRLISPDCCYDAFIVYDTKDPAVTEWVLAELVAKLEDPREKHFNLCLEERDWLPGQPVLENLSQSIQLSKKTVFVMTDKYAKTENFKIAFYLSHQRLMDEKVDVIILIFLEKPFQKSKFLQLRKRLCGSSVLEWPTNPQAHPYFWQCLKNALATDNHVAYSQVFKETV
Put plainly: HEK-Blue TLR7 reporter assay (TLR7 agonism). In kind it is cell-based. The settings on record: HEK-Blue TLR7 cells, human TLR7-SEAP reporter, 18 h treatment. Here is the method:
This example describes a method for assaying TLR7 agonist activity of the compounds disclosed in this specification.
HEK-Blue™ TLR7 cells were added to each well of a 384-well tissue-culture plate (15,000 cells per well) and incubated 16-18 h at 37° C., 5% CO2. Compounds (100 nl) were dispensed into wells containing the HEK-Blue™ TLR cells and the treated cells were incubated at 37° C., 5% CO2. After 18 h treatment ten microliters of freshly-prepared Quanti-Blue™ reagent (Invivogen) was added to each well, incubated for 30 min (37° C., 5% CO2) and SEAP levels measured using an Envision plate reader (OD=620 nm).

Another test has as its system IFN-α. The settings on record: fold less potent than the corresponding purine-8-one compound; cited from earlier work.

As usually defined, the EC50 is the concentration giving half of the maximal effect. Low values mean greater potency, high ones weaker potency.

As for `CCCCOc1nc(N)c2nc(O)n(Cc3ccc4c(c3)nnn4CCCl)c2n1` [Ia-02], the concentration giving a half-maximal response (EC50) was 53 nM in the test on interleukin 6 (IL-6) and 26 nM at human TLR7.
For `CCCCNCCn1nnc2cc(Cn3c(O)nc4c(N)nc(OCCCC)nc43)ccc21` [Ia-03], in that order: 16.8 nM and 2.3 nM.
`CCCCOc1nc(N)c2nc(O)n(Cc3ccc4c(c3)nnn4CCNC3CN(C(=O)OC(C)(C)C)C3)c2n1` [Ia-08] showed a concentration giving a half-maximal response (EC50) at human TLR7 of 113 nM.
As for `CCCCOc1nc(N)c2nc(O)n(Cc3ccc4c(c3)nnn4CCNC3COC3)c2n1` [Ia-06], the concentration for a half-maximal effect (EC50) in the test on interleukin 6 (IL-6) was 56.2 nM; on human TLR7, 11 nM.
Regarding `CCCCOc1nc(N)c2nc(O)n(Cc3ccc4c(c3)nnn4CCNCC3COC3)c2n1` [Ia-07], the EC50 in the test with interleukin 6 (IL-6) turned out to be 19.7 nM; at human TLR7, 2.4 nM.
For `CCCCOc1nc(N)c2nc(O)n(Cc3ccc4c(c3)nnn4CCNCc3ccncc3)c2n1` [Ia-10], in that order: 18.2 nM and 7.2 nM.
For `CCCCOc1nc(N)c2nc(O)n(Cc3ccc4c(c3)nnn4CCNC3CCC3)c2n1` [Ia-05], the half-maximal effective concentration (EC50) in the test on interleukin 6 (IL-6) was found to be 22.5 nM; at human TLR7, 0.9 nM.
On the same counts, the results for `CCCCOc1nc(N)c2nc(O)n(Cc3ccc4c(c3)nnn4CCO)c2n1` [Ia-01] are 37 nM and 5.4 nM.
For `CCCCOc1nc(N)c2nc(O)n(Cc3ccc4c(c3)nnn4CCNCc3ccccc3)c2n1` [Ia-09], in that order: 44 nM and 24 nM.
For `CCCCOc1nc(N)c2nc(O)n(Cc3ccc4c(c3)nnn4CCNC3CC3)c2n1` [Ia-04], the half-maximal effective concentration (EC50) was 15.3 nM in the test with interleukin 6 (IL-6) and 4 nM on human TLR7.
`CCCCOc1nc(N)c2c(n1)N(Cc1cccc(CN3CCCC3)c1)CC(=O)N2` [Vesatolimod, vesatolimod]: in the test on IFN-α, the “potency less than that of the corresponding purine-8-one compound, as measured by IFN-α induction” value was 100 ×.
